Where two headings read alike, the source gives them in different places.
Key:
[1] = system: Bacillus atrophaeus ATCC 9372 spores; details: 28% hydrogen peroxide, 65° C.
Excerpt: The mixture was then serially ten-fold diluted in saline and spread-plated on tryptic soy agar.

[2] = system: Bacillus atrophaeus ATCC 9372 spores; details: conventional usage regime; cited from earlier work
[3] = system: Bacillus atrophaeus ATCC 9372 spores; assay: Efficacy usage regimes of hydrogen peroxide and peracetic acid as compared to performic acid; type: cell-based; details: performic acid regime per Table 3
Experimental: For example, temperatures greater than about 55° C. to 65° C. and exposure times greater than about fifteen seconds may be employed in conventional techniques.

| Molecule | contact time per one logarithm of spore inactivation [1] | Efficacy usage regime: Temperature [2] [°C] | Efficacy usage regime: Time [2] [s] | Efficacy usage regime: Temperature [3] | Efficacy usage regime: Time [3] [s] |
| --- | --- | --- | --- | --- | --- |
| OO [Hydrogen Peroxide, hydrogen peroxide] | seven | 65 | 15 to 30 | – | – |
| CC(=O)OO [Peracetic Acid, peracetic acid] | – | 55 | 15 | – | – |
| performic acid | – | – | – | Room Temperature | 5 |

— patent US9814796B2, “Methods for sterilization and/or disinfection” (P[…] OF NEVADA, LLC, priority 2015, dated 2017)
